Key:
Plasmodium falciparum [1] = assay: Antiplasmodial activity against chloroquine-sensitive Plasmodium falciparum 3D7 infected in human erythrocytes after 72 hrs by SYBR Green 1 staining based fluorescence assay; format: functional, organism-based; conditions: 3D7, 72 h
Plasmodium falciparum [2] = assay: Antiplasmodial activity against chloroquine-resistant Plasmodium falciparum K1 infected in human erythrocytes after 72 hrs by SYBR Green 1 staining based fluorescence assay; format: functional, organism-based; conditions: K1, 72 h
[3] = Cytotoxicity against African green monkey Vero cells after 3 days by resazurin dye based fluorescence assay; format: cell-based; conditions: chlorocebus sabaeus
[4] = Selectivity index, ratio of CC50 for African green monkey Vero cells to IC50 for chloroquine-sensitive Plasmodium falciparum 3D7 infected in human erythrocytes; format: toxicity, cell-based; conditions: read-out: Ratio CC50/IC50
[5] = Selectivity index, ratio of CC50 for African green monkey Vero cells to IC50 for chloroquine-resistant Plasmodium falciparum K1 infected in human erythrocytes; format: toxicity, cell-based; conditions: read-out: Ratio CC50/IC50

For CC(=O)C[C@H]1O[C@@H](On2cc(CN3C(=O)C(=O)c4ccccc43)nn2)[C@H](OC(C)=O)[C@@H](OC(C)=O)[C@@H]1OC(C)=O, the IC50 (Plasmodium falciparum [1]) was 3.54 µM, the IC50 (Plasmodium falciparum [2]) was over 10 µM and the CC50 at 72 h [3] was 137 µM. The selectivity ratio [4] was 38.6 and the selectivity ratio [5] was under 13.7.
In the case of CC(=O)C[C@H]1O[C@@H](On2cc(CN3C(=O)/C(=N\Nc4ccc(F)cc4)c4ccccc43)nn2)[C@H](OC(C)=O)[C@@H](OC(C)=O)[C@@H]1OC(C)=O, the IC50 (Plasmodium falciparum [1]) is reported as 2.25 µM, the IC50 (Plasmodium falciparum [2]) is reported as 3.8 µM and the CC50 at 72 h [3] is reported as 68.7 µM. For the same molecule, the selectivity ratio [4] was 30.5 and the selectivity ratio [5] was 18.1.
COc1ccc(N/N=C2\C(=O)N(Cc3cn(O[C@@H]4O[C@H](CO)[C@@H](O)[C@H](O)[C@H]4O)nn3)c3ccccc32)cc1 showed an IC50 (Plasmodium falciparum [1]) of 3.27 µM, an IC50 (Plasmodium falciparum [2]) of 4.89 µM and a CC50 at 72 h [3] of 79.6 µM. For the same molecule, the selectivity ratio [4] was 24.4 and the selectivity ratio [5] was 16.3.
For CC(=O)C[C@H]1O[C@@H](On2cc(CN3C(=O)/C(=N\Nc4ccc(Br)cc4)c4ccccc43)nn2)[C@H](OC(C)=O)[C@@H](OC(C)=O)[C@H]1OC(C)=O, the IC50 (Plasmodium falciparum [1]) was 2.09 µM, the IC50 (Plasmodium falciparum [2]) was 2.91 µM and the CC50 at 72 h [3] was 83.4 µM. It also gave a selectivity ratio [4] of 39.9 and a selectivity ratio [5] of 28.6.
CC1(C)O[C@H]2O[C@H](Cn3cc(CN4C(=O)/C(=N\Nc5ccc(C#N)cc5)c5ccccc54)nn3)[C@H](O)[C@H]2O1 gave an IC50 (Plasmodium falciparum [1]) of 4.79 µM, an IC50 (Plasmodium falciparum [2]) of 3.4 µM and a CC50 at 72 h [3] of 105 µM. It also gave a selectivity ratio [4] of 21.8 and a selectivity ratio [5] of 30.8.
O=C1/C(=N\Nc2ccc(Br)cc2)c2ccccc2N1Cc1cn(O[C@@H]2O[C@H](CO)[C@H](O)[C@H](O)[C@H]2O)nn1 showed an IC50 (Plasmodium falciparum [1]) of 3.59 µM, an IC50 (Plasmodium falciparum [2]) of 4.68 µM and a CC50 at 72 h [3] of 91.5 µM. It also gave a selectivity ratio [4] of 25.8 and a selectivity ratio [5] of 19.5.
Work on O=C1/C(=N\Nc2cccc(Cl)c2)c2ccccc2N1Cc1cn(O[C@@H]2O[C@H](CO)[C@H](O)[C@H](O)[C@H]2O)nn1 yielded an IC50 (Plasmodium falciparum [1]) of 6.74 µM, an IC50 (Plasmodium falciparum [2]) of 2.62 µM and a CC50 at 72 h [3] of 84.5 µM. For the same molecule, the selectivity ratio [4] was 12.5 and the selectivity ratio [5] was 32.2.
CC1(C)O[C@H]2[C@@H](O1)[C@@H](Cn1cc(CN3C(=O)/C(=N\Nc4cccc(Cl)c4)c4ccccc43)nn1)O[C@@H]1OC(C)(C)O[C@@H]12 showed an IC50 (Plasmodium falciparum [1]) of 3.23 µM, an IC50 (Plasmodium falciparum [2]) of 2.49 µM and a CC50 at 72 h [3] of 117 µM. For the same molecule, the selectivity ratio [4] was 36.2 and the selectivity ratio [5] was 47.
For CC1(C)O[C@H]2O[C@H](Cn3cc(CN4C(=O)/C(=N\Nc5ccccc5)c5ccccc54)nn3)[C@H](O)[C@H]2O1, the IC50 (Plasmodium falciparum [1]) was 4.67 µM, the IC50 (Plasmodium falciparum [2]) was 4.66 µM and the CC50 at 72 h [3] was 82.1 µM. It also gave a selectivity ratio [4] of 17.6 and a selectivity ratio [5] of 17.6.
With CC1(C)O[C@H]2O[C@H](Cn3cc(CN4C(=O)C(=O)c5ccccc54)nn3)[C@H](O)[C@H]2O1 the IC50 (Plasmodium falciparum [1]) was 4.33 µM, the IC50 (Plasmodium falciparum [2]) was 3.4 µM and the CC50 at 72 h [3] was over 200 µM. For the same molecule, the selectivity ratio [4] was over 46.2 and the selectivity ratio [5] was over 58.8.
Molecule COc1ccc(N/N=C2\C(=O)N(Cc3cn(O[C@@H]4O[C@H](CC(C)=O)[C@@H](OC(C)=O)[C@H](OC(C)=O)[C@H]4OC(C)=O)nn3)c3ccccc32)cc1 has an IC50 (Plasmodium falciparum [1]) of 3.05 µM, an IC50 (Plasmodium falciparum [2]) of 4.13 µM and a CC50 at 72 h [3] of 95.3 µM. For the same molecule, the selectivity ratio [4] was 31.2 and the selectivity ratio [5] was 23.1.
CC1(C)O[C@H]2O[C@H](Cn3cc(CN4C(=O)/C(=N\Nc5ccc(Br)cc5)c5ccccc54)nn3)[C@H](O)[C@H]2O1 gave an IC50 (Plasmodium falciparum [1]) of 4.05 µM, an IC50 (Plasmodium falciparum [2]) of 3.52 µM and a CC50 at 72 h [3] of 72.9 µM. For the same molecule, the selectivity ratio [4] was 18 and the selectivity ratio [5] was 20.7.
In the case of CC(=O)C[C@H]1O[C@@H](On2cc(CN3C(=O)/C(=N\Nc4ccccc4)c4ccccc43)nn2)[C@H](OC(C)=O)[C@@H](OC(C)=O)[C@@H]1OC(C)=O, the IC50 (Plasmodium falciparum [1]) is reported as 3.73 µM, the IC50 (Plasmodium falciparum [2]) is reported as 7.11 µM and the CC50 at 72 h [3] is reported as 108 µM. It also gave a selectivity ratio [4] of 28.9 and a selectivity ratio [5] of 15.1.
